The test system of assay [1] is inflammatory cytokine levels. Conditions: Hu; cited from earlier work.
The subject of assay [2] is TLR4/MyD88. Conditions: Rat; cited from earlier work.
Assay [3] has as its system high fat diet mouse model of NAFLD. Conditions: cited from earlier work.
Assay [4] addresses T1, CCR2 (Homo sapiens, UniProt P41597). In words: CCL2 (MCP-1)-elicited chemotaxis of human monocytes. Format: cell-based. Further details: endogenous in cells; host or cells: human monocytes. Conditions: FIG. 3; methods similar to FIG. 2; low concentration. On the procedure: Monocytes were treated with the indicated doses of RAP-103 for 30 min before chemotaxis against human CCL2 (MCP-1) or CCL4 (MIP-1β) (both 50 ng/mL) for 90 min. Data (chemotactic index) are presented as mean±SEM. The chemotactic index for MCP-1 without RAP-103 was 2.5-3.5 times over control, whereas for MIP-1 ? without RAP-103, it was approximately 2 times over control. Data are presented as mean±SEM. (*P<0.05, **P<0.01 vs RAP-103 untreated). Data are from [Padi, 2012, FIG. 1]. […] Dual-chemokine CCR2/CCR5 receptor antagonists may have added therapeutic value by blocking multiple inflammatory pathways.
Methods are similar to those in FIG. 2.

Assay [5] concerns human monocyte derived immature dendritic cells (iDCs). From the text: In liver, TLR4 is expressed by all parenchymal and non-parenchymal cell types, and contributes to tissue damage caused by a variety of etiologies. TLR4 signaling occurs in hepatic stellate cells (HSCs), the major fibrogenic cell type in injured liver, and mediates an inflammatory phenotype leading to fibrogenesis.

Assay [6] relates to chemokines, chemokine receptors and cytokines. Conditions: Rat, oral gavage 0.05-1 mg/kg for 7 days, nerve injured. From the text:
The specific experimental details are provided in Padi, 2012 (7).

The target of a further assay is CCR5 (Homo sapiens, UniProt P51681). Conditions: 30 min pretreatment; CCL4 50 ng/mL for 90 min; FIG. 2; cited from earlier work.
Chain of CCR5 (P51681 whole entry): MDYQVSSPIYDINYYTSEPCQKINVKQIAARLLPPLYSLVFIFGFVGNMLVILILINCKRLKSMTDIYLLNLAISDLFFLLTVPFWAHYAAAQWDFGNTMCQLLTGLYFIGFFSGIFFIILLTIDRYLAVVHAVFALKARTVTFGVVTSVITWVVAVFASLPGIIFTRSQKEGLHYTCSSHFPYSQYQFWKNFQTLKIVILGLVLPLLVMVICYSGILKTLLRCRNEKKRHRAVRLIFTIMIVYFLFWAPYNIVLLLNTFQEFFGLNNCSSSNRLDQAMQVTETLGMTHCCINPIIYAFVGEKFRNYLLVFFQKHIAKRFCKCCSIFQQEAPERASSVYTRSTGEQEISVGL
Assay [7] relates to TLR4/MyD88. Conditions: iDCs treated at 10^-12 M for 30 min, then LPS 100 ng/ml, analyzed after 48 hrs. The procedure:
To determine whether all-D-TTNYT (SEQ ID NO:1) blocks maturation of antigen-presenting dendritic cells, human PBMC's were isolated from peripheral blood by Ficoll-Paque centrifugation and then monocytes were isolated by negative selection using immunobeads (Miltenyi). Human monocyte derived immature dendritic cells (iDCs) were then generated by treating monocytes with GM-CSF/IL4.
After 30 min LPS (100 ng/ml) was added to the cells and cells were analyzed after 48 hrs. for surface maturation markers using fluorescent labeled antibodies by flow cytometry.

Assay [8] has as its target T1, CCR2. Conditions: 30 min pretreatment; CCL2 50 ng/mL for 90 min; FIG. 2; cited from earlier work.
For a further assay, the system named is response to bradykinin. Conditions: amounts up to 50,000 times the standard challenge of bradykinin; cited from earlier work.
The mark [9] stands for this setting: listed as all-D-pentapeptide TTNYT.

The values below come from patent US10624944B2, “Anti-inflammatory peptides for treating non-alcoholic steatohepatitis (NASH)” (Creative Bio-Peptides Inc., priority 2017, dated 2020).

Read-outs that look alike come from different tables or passages of the source. Square brackets hold non-standard residues; d marks the D form. Ends that are not written are not given here.

T1 sequence (P41597 whole entry): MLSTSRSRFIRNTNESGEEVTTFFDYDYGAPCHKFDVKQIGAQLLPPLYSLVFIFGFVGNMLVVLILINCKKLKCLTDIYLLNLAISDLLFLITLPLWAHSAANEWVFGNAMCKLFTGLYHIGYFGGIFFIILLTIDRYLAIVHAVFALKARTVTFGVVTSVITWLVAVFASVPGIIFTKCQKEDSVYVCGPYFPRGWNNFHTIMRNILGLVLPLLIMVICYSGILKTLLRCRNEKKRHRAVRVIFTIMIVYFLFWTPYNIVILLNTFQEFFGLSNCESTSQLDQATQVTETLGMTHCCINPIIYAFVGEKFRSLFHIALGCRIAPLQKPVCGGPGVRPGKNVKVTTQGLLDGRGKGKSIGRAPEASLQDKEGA

In the case of Dala1-peptide T-amide [DAPTA], in assay [1], the “Change of ICAM-1” value was “decrease”, the “Change of IL-1” value was “decrease”, the “Change of IL-6” value is listed as “decrease” and the “Change of IL-8” value is on record as “decrease”. In assay [1], the “Change of IL-23” value is given as “decrease”, the “Change of NFkB” value is on record as “decrease”, the “Change of STAT3” value is “decrease” and the “Change of TNFα” value was “decrease”. Moreover, the “Change of TLR4/MyD88” value in the assay with TLR4/MyD88 [2] is “decrease”.

For the substance Maraviroc, in assay [3], the CCL5/RANTES expression entry was “significantly lower” and the hepatic steatosis result is given as “ameliorated hepatic steatosis”.

As for “all-D-NTSYR ([dN][dT][dS][dY][dR]) [all-D-amino acid pentapeptide NTSYR]”, the “CCL2 human monocyte chemotaxis” value with CCR2 [4] is given as “antagonists”.

With “all-D-SSTYR ([dS][dS][dT][dY][dR]) [all-D-amino acid pentapeptide SSTYR]”, the “CCL2 human monocyte chemotaxis” value with CCR2 [4] is listed as “antagonists”.

Take all-D-TTNYT: the “DC maturation of the four markers caused by LL37” value in assay [5] was “no effect”. In addition, in [6], the “Change of CCR2” value is “decrease”, the “Change of CCR5” value is on record as “decrease”, the “Change of IL-6” value is listed as “decrease” and the “Change of IL-β” value is reported as “decrease”. Besides, in assay [6], the “Change of MCP-1 (CCL2)” value is on record as “decrease”, the “Change of MIP-1α (CCL3)” value is “decrease” and the “Change of TNFα” value is listed as “decrease”. Also, in [6] (setting [9]), the “Change of CCR2” value is on record as “lowering expression”, the “Change of CCR5” value is “lowering expression”, the “Change of IL-β” value is given as “lowering expression” and the “Change of MCP-1 (CCL2)” value is listed as “lowering expression”. For the same substance, in assay [6] (setting [9]), the “Change of MIP-1α (CCL3)” value is “lowering expression” and the “Change of TNFα” value was “lowering expression”. The “CCL4 (MIP-1β) human monocyte chemotaxis (chemotactic index)” value at CCR5 is “dual-antagonist”. In addition, the “expression of maturation markers CD86, HLA-DR, CD58 and ICAM1 induced by TLR4/MyD88 activation (LPS)” value in the assay on TLR4/MyD88 [7] is “reduces expression of all the maturation markers”. In addition, the “CCL2 (MCP-1) human monocyte chemotaxis (chemotactic index)” value on CCR2 [8] is reported as “dual-antagonist”.

Take “all-D-TTSYT ([dT][dT][dS][dY][dT]) [all-D-amino acid pentapeptide TTSYT]”: the “CCL2 human monocyte chemotaxis” value in the assay with CCR2 [4] is reported as “antagonists”.

all-D-bradykinin: the “inhibition of the response to bradykinin or bradykinin-like effect” value with response to bradykinin is listed as “neither any inhibition of the response to bradykinin, or any bradykinin-like effect”.
